Data: patent US20240057617A1, “COMPOSITIONS AND METHODS FOR MEALYBUG MONITORING AND CONTROL” (The State of Israel, Ministry of Agriculture & Rural …, priority 2019, published 2024)

What was measured:
[1] = system: N. viridis males; assay: Petri dish choice bioassay (arrestment of males on impregnated paper disks); format: in vivo, Nipaecoccus viridis; conditions: for mean number of males attracted to bait (arrested on paper disk): 10 ng on filter paper disk, 24 males released, counted after 1 h, mean ±SE, n=6
Procedure: Insects. N. viridis populations were collected from two citrus groves in Israel, in West Negev and the […] areas. These populations were used to establish a colony on sprouted potatoes (Solanum tuberosum) in a rearing room at 25±1° C., 50-60% relative humidity, and under a photoperiod of […]:10D. First stage larval instars were separated to a different cage and emerged adult males were removed manually each day (Levi-Zada et al. 2014). Adult females, 10 days after the last molt, were transferred to clean potato sprouts for further use in experiments. Behavioral Bioassays. The two putative female sex pheromone components and their 1:1 mixture were tested in 14-cm diameter glass Petri dish arenas (Mendel et al. 2012). Four filter paper disks (5-mm diameter, Whatman No. 1) impregnated with 1 μl n-hexane solutions containing 10 ng γ-necrodol (I), 10 ng γ-necrodyl isobutyrate (II), 5 ng of each I+II combined, and solvent only (control) were equally spaced in random order on the periphery of the arena in each test (n=6). Twenty-four males were released in each of the tests at the center of a Petri dish and after 1 h the number of males found on each paper disk was recorded. […] If a significant difference was found then post-hoc pairwise Conover tests with Bonferroni correction for multiple comparisons was performed (same PMCMR package).

[2] = system: N. viridis males; assay: Flight bioassay with baited sticky traps in rearing room; format: in vivo, Nipaecoccus viridis; conditions: for average males caught on sticky trap: 20 μg in polyethylene vial, 12 days, mean ±SE, N=12; for statistical comparison of male catches per day with control: Kruskal-Wallis P=0.001, Conover's test at α=0.05
Procedure: Insects. N. viridis populations were collected from two citrus groves in Israel, in West Negev and the Galilee areas. These populations were used to establish a colony on sprouted potatoes (Solanum tuberosum) in a rearing room at 25±1° C., 50-60% relative humidity, and under a photoperiod of 14L:10D. First stage larval instars were separated to a different cage and emerged adult males were removed manually each day (Levi-Zada et al. 2014). Adult females, 10 days after the last molt, were transferred to clean potato sprouts for further use in experiments.
Flight bioassays of males compared the attractiveness of the female produced components in a 3×3 m^2 rearing room in which a colony of mealybugs, in several open plastic containers, was placed on the floor in the center. Traps consisting of white cards (18×10 cm^2) covered with 80% polyisobutene adhesive (Rimifoot, Rimi, Petah Tikva, Israel) were baited with 0.5 ml 5×8 mm ID×OD polyethylene vials (Just Plastic, Norfolk, UK) containing either 20 μg of γ-necrodol (I), γ-necrodyl isobutyrate (II), their mixture (I+II, 20 μg each), each in 200 μl n-hexane solution, or only 200 μl n-hexane control. The baited traps were hung at 1.2 m height, separated by 2.8 m and were rotated in position every day for 12 days. The Kruskal-Wallis rank sum test and post-hoc Conover tests above were used to compare catches on treatments for statistical differences.

Row | Compound | mean number of males attracted to bait (arrested on paper disk) [1] [males] | statistical comparison of male arrestment with control ([1]; Kruskal-Wallis, post-hoc Conover tests with Bonferroni correction, all P<0.0001) | average males caught on sticky trap [2] [males per day] | statistical comparison of male catches per day with control [2]
1 | γ-necrodyl isobutyrate [compound II] | 3.16±0.7 | significantly different from I or control | 654±178 | significantly more
2 | CC1=C(C)C(C)(C)C(CO)C1 (stereo not shown) [compound I, 2,2,3,4-tetramethyl-3-cyclopentene-1-methanol] | 0.5±0.2 | – | 139±41 | not significantly different
